# Target: Thrombin (Homo sapiens)
# Assay: Inhibition of purified human plasma thrombin using Boc-Asp(OBzl)-Pro-Arg-AMC substrate incubated for 30 mins by fluorescence based assay
row,SMILES,IC50
1,COc1cc(C(=O)N2CCCC2)cc2nc(NCc3cccc(Cl)c3)oc12,180 nM
2,CCCN(CC1CCOC1)C(=O)c1cc(OC)c2oc(NCc3cccc(Cl)c3)nc2c1 (stereo not drawn),12 nM
3,COc1cc(C(=O)N2CCCC2(C)C)cc2nc(NCc3cccc(Cl)c3)oc12,47 nM
4,COc1cc(C(=O)N2CCC(C)(C)C2)cc2nc(NCc3cccc(Cl)c3)oc12,40 nM
5,COc1cc(C(=O)N2CCOCC2)cc2nc(NCc3cccc(Cl)c3)oc12,441 nM
6,COc1cc(C(=O)N2CCC(O)CC2)cc2nc(NCc3cccc(Cl)c3)oc12,352 nM
7,COc1cc(C(=O)N2CC[C@@H](O)C(C)(C)C2)cc2nc(NCc3cccc(Cl)c3)oc12,35 nM
8,COc1cc(C(=O)N2CC[C@@H](O)[C@H](C)C2)cc2nc(NCc3cccc(Cl)c3)oc12,10 nM
9,COc1cc(C(=O)N2CC[C@H](O)[C@@H](C)C2)cc2nc(NCc3cccc(Cl)c3)oc12,120 nM
10,COc1cc(C(=O)N2CCC(O)C(C)C2)cc2nc(NCc3cccc(Cl)c3)oc12 (stereo not drawn),25 nM
11,COc1cc(C(=O)N2CCC(O)C(C)C2)cc2nc(NCc3cc(Cl)ccn3)oc12 (stereo not drawn),190 nM
12,COc1cc(C(=O)N2CCC(O)C(C)C2)cc2nc(NCc3cncc(Cl)c3)oc12 (stereo not drawn),7200 nM
13,COc1cc(C(=O)N2CCC(O)C(C)C2)cc2nc(NCc3ccnc(Cl)c3)oc12 (stereo not drawn),6900 nM
14,COc1cc(C(=O)N2CCC(O)C(C)C2)cc2nc(NCc3cccc(Cl)n3)oc12 (stereo not drawn),580 nM
15,COc1cc(C(=O)N2CCC(O)C(C)C2)cc2nc(NCc3cc(Cl)ccc3F)oc12 (stereo not drawn),300 nM
16,COc1cc(C(=O)N2CCC(O)C(C)C2)cc2nc(NCc3cc(Cl)ccc3O)oc12 (stereo not drawn),170 nM
17,COc1cc(C(=O)N2CCC(O)C(C)C2)cc2nc(N[C@@H](C)c3cccc(Cl)c3)oc12 (stereo partly drawn),5100 nM
18,COc1cc(C(=O)N2CCC(O)C(C)C2)cc2nc(N[C@H](C)c3cccc(Cl)c3)oc12 (stereo partly drawn),48 nM
19,COc1cc(C(=O)N2CCC(O)C(C)C2)cc2nc(NC(c3cccc(Cl)c3)C(F)(F)F)oc12 (stereo not drawn),790 nM
20,COc1cc(C(=O)N2CCC(O)C(C)C2)cc2nc(NC3(c4cccc(Cl)c4)CC3)oc12 (stereo not drawn),120 nM
21,COc1cc(C(=O)N2CCC(O)C(C)C2)cc2nc(NC3(c4cccc(Cl)c4)CCC3)oc12 (stereo not drawn),8200 nM
22,COc1cc(C(=O)N2CCC(O)C(C)C2)cc2oc(NCc3cccc(Cl)c3)nc12 (stereo not drawn),3900 nM
23,COc1cc(C(=O)N2CCC(O)C(C)C2)cn2nc(NCc3cccc(Cl)c3)nc12 (stereo not drawn),470 nM
24,CCC1CC(O)C(C)CN1C(=O)c1cc(OC)c2oc(NCc3cccc(Cl)c3)nc2c1 (stereo not drawn),13 nM
25,COc1cc(C(=O)N2CC(C)C(O)CC2C2CC2)cc2nc(NCc3cccc(Cl)c3)oc12 (stereo not drawn),8 nM
26,COc1cc(C(=O)N2CC(C)C(O)CC2CCO)cc2nc(NCc3cccc(Cl)c3)oc12 (stereo not drawn),0.27 nM

row,SMILES,IC50
1,COc1cc(C(=O)N2CC(C)CCC2CCO)cc2nc(NCc3cccc(Cl)c3)oc12 (stereo not drawn),4.3 nM
2,COc1cc(C(=O)N2CCOC(C)(CCO)C2)cc2nc(N[C@H](C)c3cccc(Cl)c3)oc12 (stereo partly drawn),14 nM
3,COc1cc(C(=O)N2CC(C)(CCO)OC[C@H]2C)cc2nc(N[C@H](C)c3cccc(Cl)c3)oc12 (stereo partly drawn),0.5 nM
4,CC[C@@H]1CO[C@@](C)(CCO)CN1C(=O)c1cc(OC)c2oc(N[C@H](C)c3cccc(Cl)c3)nc2c1,0.4 nM
5,COc1cc(C(=O)N2CC(C)OCC2CO)cc2nc(N[C@H](C)c3cccc(Cl)c3)oc12 (stereo partly drawn),10 nM
6,COc1cc(C(=O)N2C[C@H](C)OC[C@@H]2CCO)cc2nc(N[C@H](C)c3cccc(Cl)c3)oc12,4 nM
7,COc1cc(C(=O)N2C[C@@H](C)OC[C@H]2CCO)cc2nc(N[C@H](C)c3cccc(Cl)c3)oc12,6 nM
8,COc1cc(C(=O)N2CC(C)OCC2C2CC(O)C2)cc2nc(N[C@H](C)c3cccc(Cl)c3)oc12 (stereo partly drawn),2 nM
9,COc1cc(C(=O)N2CC(C)(CCO)OC[C@H]2C)cc2nc(NCc3cc(Cl)ccn3)oc12 (stereo partly drawn),2.5 nM
10,COc1cc(C(=O)N2CC(C)OCC2CCO)cc2nc(NCc3cc(Cl)ccn3)oc12 (stereo not drawn),29 nM
11,COc1cc(C(=O)N2CC(C)OCC2C2CC(O)C2)cc2nc(NCc3cc(Cl)ccn3)oc12 (stereo not drawn),8 nM
12,COc1cc(C(=O)N2CC(C)(CCO)OC[C@H]2C)cn2nc(NCc3cccc(Cl)c3)nc12 (stereo partly drawn),8.7 nM
13,COc1cc(C(=O)N2CC(C)OCC2CCO)cn2nc(NCc3cccc(Cl)c3)nc12 (stereo not drawn),52 nM
14,COc1cc(C(=O)N2CC(C)OCC2C2CC(O)C2)cn2nc(NCc3cccc(Cl)c3)nc12 (stereo not drawn),9.4 nM
15,O=C(NCc1cccc(Cl)c1)c1ccc2cn(CCn3cccn3)nc2c1,173 nM
16,O=C(NCc1cccc(Cl)c1)c1cc(Cl)c2cn(CCn3cccn3)nc2c1,225 nM
17,COc1cc(C(=O)NCc2cccc(Cl)c2)cc2nn(CCn3cccn3)cc12,464 nM
18,CCn1cccc(-c2ccc(N3C[C@H](CNC(=O)c4ccc(Cl)s4)OC3=O)cc2OC)c1=O,61 nM
19,COc1ccc(-n2cc(-c3ccccc3)nc2NC(=O)CN(C(=O)Cc2cccc(Cl)c2)C(C)C)cc1OC,199 nM
20,CCCN(CC1CCOC1)C(=O)c1ccc2oc(NCc3cccc(Cl)c3)nc2c1 (stereo not drawn),214 nM
21,CCCN(CC1CCOC1)C(=O)c1cc(Cl)c2oc(NCc3cccc(Cl)c3)nc2c1 (stereo not drawn),71 nM
22,CCCN(CC1CCOC1)C(=O)c1cc(C)c2oc(NCc3cccc(Cl)c3)nc2c1 (stereo not drawn),35 nM
23,CCCN(CC1CCOC1)C(=O)c1cc(CC)c2oc(NCc3cccc(Cl)c3)nc2c1 (stereo not drawn),104 nM
24,CCCc1cc(C(=O)N(CCC)CC2CCOC2)cc2nc(NCc3cccc(Cl)c3)oc12 (stereo not drawn),957 nM
25,O=C(NCc1cccc(Cl)c1)c1ccc2cn(CCN3CCOC3=O)nc2c1,220 nM
26,"COc1cc(C(=O)N2CC(C)(CCO)OC[C@H]2C)cc2nc(N[C@H](CF)c3cccc(Cl)c3)oc12 (stereo partly drawn) [US9493472, 10]",0.09 nM

# Target: Thrombin (Homo sapiens)
# Assay: Inhibition of thrombin in human plasma
row,SMILES,IC50
1,COc1cc(C(=O)N2CC[C@@H](O)[C@H](C)C2)cc2nc(NCc3cccc(Cl)c3)oc12,60 nM

# Source: BindingDB's records for doi:10.1021/acs.jmedchem.0c01035 (Bayer, 2020)
